Results on three compounds are retold here after US20190390161A1, “CULTURE MEDIUM COMPRISING OLIGOPEPTIDES” (Evonik Degussa GmbH, priority 2017, published 2019).

Series [1] concerns the target plasmin (Homo sapiens, UniProt P00747). The settings on record: Chemical & Pharmaceutical Bulletin 22, 2680 (1974); cited from earlier work.
The test system of series [2] is antibody producing Chinese Hamster Ovary (CHO) cells (Subclone DG44). As to the kind of experiment: Antibody production (final antibody titer) in TC-42 media. It is filed as cell-based. Conditions: compared with cells cultured in reference media; 24 days (FIG. 4). The text has this: FIG. 4 depicts the final antibody titer with TC-42 media obtained with oligopeptides according to the invention.
(§1) The influence of the L-lysine dipeptides on the growth of antibody producing Chinese Hamster Ovary (CHO) cells (Subclone DG44; Life Technologies Cooperation, Carslbad, USA) in comparison to media containing either the corresponding free amino acids or the corresponding L-alanine dipeptides was investigated. For this purpose, the cells were cultivated in a TC-42 media produced by Xell AG, Bielefeld, Germany in which the amino acids provided within the experiments by dipeptides were lacking. The concentrations of these amino acids were adjusted in such a way that, taking into account a complete hydrolysis of the dipeptides into the amino acids, the concentration of all amino acids were the same in all media tested within this experiment.
Additionally, the effect on antibody production was analysed comparing cells cultured in reference media and cells growing in a media containing the dipeptides bis-alanyl-L-cystine or […] for 24 days (FIG. 4).

For series [3] the test system is unchanged. As to the kind of experiment: Experiment 1: cell growth (VCD) in TC-42 media, cysteine/cystine or leucine replaced by dipeptides. Type of series: cell-based. The settings on record: for maximum cell densities (max. VCD) / Viable cell densities (VCD): TC-42 media of table 2; for cell growth performance compared with reference medium (FIG. 1): same molar amount of cysteine and cystine in the form of dipeptides. Further details: Viable cell densities (VCD) / maximum cell densities (max. VCD): unit not given here.
Text: as §1, with “experiment. […] Experiment 1: Comparison of the Cell Growths Obtained with TC-42 media in which L-cysteine/L-cystine is replaced by bis-L-alanyl-L-cystine, bis-L-prolyl-L-cystine or bis-L-lysyl-L-cystine and L-leucine is replaced by […] For this experiment a TC-42 media produced by Xell AG, Bielefeld, Germany in which […]-cystine and L-leucine were deliberately left out of the initial formulation. […] [table]” for “experiment.”

The conditions of series [4]: cited from earlier work.
Series [5] in a line: Solubility found for Lys-Xxx dipeptides.

Marks after values point to notes of the source that are not given here. Bridge positions count the residues as written; N and C are the ends. Peptide text beside a SMILES is read from it. I, II: the chains in the order shown.

plasmin, sequence (P00747 581-810 limits assumed, species assumed): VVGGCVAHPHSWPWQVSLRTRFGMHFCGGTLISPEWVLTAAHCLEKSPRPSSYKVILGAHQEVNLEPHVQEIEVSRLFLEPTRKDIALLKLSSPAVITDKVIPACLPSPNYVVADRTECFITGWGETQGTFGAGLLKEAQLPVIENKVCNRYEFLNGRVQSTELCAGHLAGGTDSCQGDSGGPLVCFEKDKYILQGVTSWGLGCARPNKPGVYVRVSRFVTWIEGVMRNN
plasmin, sequence (P00747 97-580 partner limits assumed, species assumed): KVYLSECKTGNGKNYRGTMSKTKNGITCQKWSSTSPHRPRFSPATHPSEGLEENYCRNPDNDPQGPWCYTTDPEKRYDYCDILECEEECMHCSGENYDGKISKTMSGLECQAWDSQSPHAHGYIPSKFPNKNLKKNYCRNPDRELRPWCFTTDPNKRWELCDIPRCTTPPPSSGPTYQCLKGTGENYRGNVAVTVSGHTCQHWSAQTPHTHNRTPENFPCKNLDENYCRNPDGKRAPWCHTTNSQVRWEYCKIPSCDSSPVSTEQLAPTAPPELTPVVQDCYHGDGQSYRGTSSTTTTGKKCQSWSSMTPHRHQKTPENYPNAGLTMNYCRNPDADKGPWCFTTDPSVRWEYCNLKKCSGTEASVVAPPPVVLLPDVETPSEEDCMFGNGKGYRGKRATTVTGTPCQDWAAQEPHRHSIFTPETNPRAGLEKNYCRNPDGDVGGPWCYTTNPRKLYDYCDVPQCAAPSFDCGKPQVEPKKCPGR

Take Lys-Lys [reference compound]: the “cleavage (hydrolysis) by plasmin” value in series [1] was “none of these peptides were cleaved”.
Consider “Bis-L-alanyl-L-cystine [Ala2-Cyss, reference compound]”, for which, in series [2], the “antibody production increased by” value was “at least 30%”. Moreover, the “maximum cell densities (max. VCD)” value in series [3] is reported as 15.06. In addition, the “Viable cell densities (VCD)” value in series [3] (Time 0.0) turned out to be 0.26; in series [3] (Time 0.7), 0.42; in series [3] (Time 2.0) it was 0.47; in series [3] (Time 2.7), 0.67; in series [3] (Time 3.6) it was 0.84; in series [3] (Time 3.7), 0.36. For the same compound, the “Viable cell densities (VCD)” value in series [3] (Time 4.7) is on record as 0.71; in series [3] (Time 5.8), 1.52; in series [3] (Time 6.7), 2.34; in series [3] (Time 6.8), 0.32; in series [3] (Time 7.8), 0.48; in series [3] (Time 8.7) it was 1.06. Besides, the “Viable cell densities (VCD)” value amounted to 1.79 in series [3] (Time 9.7); 3.19 in series [3] (Time 10.6); 4.89 in series [3] (Time 11.6); 7.65 in series [3] (Time 12.8); 10.01 in series [3] (Time 13.6); 11.62 in series [3] (Time 15.0). The “Viable cell densities (VCD)” value in series [3] (Time 15.9) was 15.06; in series [3] (Time 16.7) it was 14.38; in series [3] (Time 17.8), 14.05; in series [3] (Time 18.7), 14.28. In addition, the “cell growth performance compared with reference medium (FIG. 1)” value in series [3] is “the cells were able to utilize the peptides for growth”. The “Solubility Ala-Xxx” value in series [4] (Degussa product brochure, cystine value WO 2011/133902) is recorded as 8.7 ^2) g/1000 g solution. Besides, the solubility in series [4] (prior art values, background) is given as 15.3 g/ltr.
Take `NCCCC[C@H](N)C(=O)N[C@@H](CSSC[C@H](NC(=O)[C@@H](N)CCCCN)C(=O)O)C(=O)O` [Lys2-Cyss, Bis-L-lysyl-L-cystine × 4HCl] (I: H-Lys-Cys-OH / II: H-Lys-Cys-OH; disulfide I:2-II:2): the “antibody production increased by” value in series [2] is listed as approximately 50%. In series [3], the “maximum cell densities (max. VCD)” value was determined as 14.16. For the same compound, the “Viable cell densities (VCD)” value in series [3] (Time 0.0) came out at 0.31; in series [3] (Time 0.7), 0.39; in series [3] (Time 2.0) it was 0.54; in series [3] (Time 2.7) it was 0.83; in series [3] (Time 3.6), 1.02; in series [3] (Time 3.7), 0.39. The “Viable cell densities (VCD)” value in series [3] (Time 4.7) came to 0.62; in series [3] (Time 5.8) it was 1.18; in series [3] (Time 6.7), 1.98; in series [3] (Time 6.8) it was 0.30; in series [3] (Time 7.8) it was 0.43; in series [3] (Time 8.7), 0.98. In addition, the “Viable cell densities (VCD)” value was determined as 1.82 in series [3] (Time 9.7); 2.88 in series [3] (Time 10.6); 4.75 in series [3] (Time 11.6); 6.68 in series [3] (Time 12.8); 9.20 in series [3] (Time 13.6); 11.93 in series [3] (Time 15.0). For the same compound, the “Viable cell densities (VCD)” value in series [3] (Time 15.9) is on record as 13.66; in series [3] (Time 16.7), 13.41; in series [3] (Time 17.8), 14.16; in series [3] (Time 18.7) it was 14.15. The “cell growth performance compared with reference medium (FIG. 1)” value in series [3] was “performance comparable to bis-alanyl-L-cystine”. For the same compound, in series [5] (as hydrochloride or as acetate (footnotes 6, 7)), the “Solubility Lys-Xxx found” value is >500 ^6) g/1000 g solution. Further, the solubility found in series [5] (hydrochloride) is on record as > 50 % (w/w).
